Test results: patent US9737502B2, “Calebin A for hepatic steatosis” (SAMI LABS LIMITED, priority 2011, dated 2017)

Legend:
TNF-α = assay: Intracellular TNF-α in LPS-stimulated murine neutrophils (flow cytometry); assay type: cell-based; settings: 100 μg/ml
Procedure: The present inventors also adduce extra evidence to support the ability of Calebin A to suppress intracellular TNF and extracellular IL-1β in murine neutrophil systems (Table II, Table III). Neutrophils are isolated by histopaque gradient method tested for their ability to produce in vitro TNF-α following stimulation with Lipopolysaccharide (LPS). The cells were incubated with phycoerythrin (PE)-labeled anti-mouse TNF-α in the dark, and after being washed with sterile PBS, samples were resuspended in PBS (pH 7.4) and acquired directly on the flow cytometer (BDLSR; Becton Dickinson). A fluorescence trigger was set on the PE […] parameter of the gated neutrophil populations (10,000 events). Rolipram at 100 μg/ml was used as standard inhibitor of TNF-α in this study. Fluorescence compensation, data analysis, and data presentation were performed using Cell Quest Pro software (Becton Dickinson).

IL-1β = assay: Extracellular IL-1β in LPS-stimulated murine neutrophils; assay type: cell-based; settings: 100 μg/ml

COc1ccc(C2CNC(=O)C2)cc1OC1CCCC1 (stereo not shown) [Rolipram, reference compound]
% Activity (suppression of TNF-α expression) (TNF-α): 72.13%↓ | Expression of TNF-α Mean ± S.E (TNF-α; LPS Control 2.62 ± 0.01): 0.73 ± 0.09 | % Activity (suppression of IL-1 β expression) (IL-1β): 56.52%↓ | IL-1β Concentration (IL-1β; LPS Control 51.80 ± 2.18): 22.52 ± 1.60 pg/mL
